Earlier results in patent US20250169531A1 (priority 2023, published 2025).

Conditions: at 25° C.

CN1CCCC1c1cccnc1 (stereo not shown) [Nicotine]
pka of the nitrogen of the pyridine ring: 3.41
